The record followed here is patent US11739122B2, “Glycopeptide antibiotic compounds, methods for producing the same, and uses thereof” (Academia Sinica, priority 2019, dated 2023).

As usually defined, the MBC is the smallest concentration meeting the test's criterion for killing. The low end stands for greater bactericidal potency, the high end for weaker bactericidal potency. One may read the MIC as the smallest concentration in the dilution series that meets the test's criterion for growth inhibition.

Molecules are shown by their SMILES. ≈ marks a conversion by molar mass, not a printed value. Bounds are passed on as bounds.

For one assay, the system named is AB ATCC 19606. As to the kind of experiment: Minimal bactericidal concentration (MBC). The class given is cell-based, Acinetobacter baumannii. Here is the method: (§1) Minimal Bactericidal Concentration (MBC) Determination
(§2) The MBC test is an extension of the MIC examination. MBC was determined by performing subcultures on antibiotic-free agar from both the well where there was no visible growth at the MIC of a tested antibiotic and from the positive control well (with inoculum but without compounds). The plates were incubated at 37° C. for 18-24 hours. The MBC was taken as the lowest concentration of the test compound that results in more than 99.9% reduction of viable bacteria. If MBC was one or two dilutions above a given MIC value (MBC/MIC ratio was less than or equal to four), the antibiotic was considered bactericidal against the test organism.

The test system of a further assay is VRE ATCC 700425 (vanC). In words: MIC, broth microdilution. Particulars: VRE ATCC 700425 (vanC). The class given is cell-based, enterococci. A digest of the protocol: (§3)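 Broth microdilution; inocula were prepared from 18–24 h agar colonies to a 0.5 McFarland standard and adjusted to about 1×10^8 CFU/mL. Plates were incubated at 37 °C for 18–24 h. The MIC was the lowest compound concentration showing no visible growth.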
(In general: Broth dilution looks for growth in wells or tubes with falling amounts of substance.)

For a further assay, the system named is VRE ATCC 700802 (vanB). As to the kind of experiment: MIC, broth microdilution. It is filed as cell-based, enterococci. The note with it: VRE ATCC 700802 (vanB). A digest of the protocol:
as §3

In a further assay the test system is VRE ATCC 700221 (vanA). As to the kind of experiment: MIC, broth microdilution. It is filed as cell-based, enterococci. Particulars: VRE ATCC 700221 (vanA). A digest of the protocol:
as §3

The next assay relates to MRSA ATCC 43300. As to the kind of experiment: MIC, broth microdilution. The class given is cell-based, Staphylococcus aureus. The note with it: MRSA ATCC 43300. A digest of the protocol: as §3
For another assay, the system named is MRSA ATCC BAA-44. In words: MIC, broth microdilution. Particulars: MRSA ATCC BAA-44. The class given is cell-based, Staphylococcus aureus. A digest of the protocol:
as §3

A further assay deals with S. aureus ATCC 29213. As to the kind of experiment: MIC, broth microdilution. It is filed as cell-based, Staphylococcus aureus. Particulars: SA ATCC 29213. A digest of the protocol: as §3
A further assay has as its system MRSA ATCC 700698 hVISA. In words: MIC, broth microdilution. The class given is cell-based, Staphylococcus aureus. Particulars: MRSA ATCC 700698 hVISA. A digest of the protocol: as §3
The subject of another assay is MRSA ATCC BAA-38. In words: MIC, broth microdilution. The class given is cell-based, Staphylococcus aureus. The note with it: MRSA ATCC BAA-38. A digest of the protocol: as §3
Another assay relates to MRSA ATCC BAA-39. In words: MIC, broth microdilution. It is filed as cell-based, Staphylococcus aureus. Particulars: MRSA ATCC BAA-39. A digest of the protocol: as §3
The next assay relates to MRSA ATCC 700787 VRSA. In words: MIC, broth microdilution. The class given is cell-based, Staphylococcus aureus. A digest of the protocol:
as §3

For a further assay, the system named is MRSA ATCC 700789 VRSA. In words: MIC, broth microdilution. The note with it: MRSA ATCC 700789 VRSA. The class given is cell-based, Staphylococcus aureus. A digest of the protocol: as §3
The test system of assay [1] is VRE ATCC 700221 (vanA type). In words: Thin-section TEM, cell wall morphology. The class given is cell-based, enterococci. The note with it: VRE ATCC700221, vanA type. The method, then: Thin-Section Transmission Electron Microscopy (TEM)
An overnight cultured MRSA ATCC 700787, VRE ATCC 700221 or A. baumannii ATCC 19606 was individually sub-cultured into a fresh medium. Bacteria at the exponential phase were treated with a given test compound at a concentration of 4×MIC for 1-4 hour at 37° C. and followed by wash and resuspension in PBS. Bacteria cells for the TEM analysis were prepared as follows: Cells were fixed with 2.5% glutaraldehyde for 30 minutes. After the fixation, cells were washed twice with PBS and fixed with 1% osmium tetraoxide for another 30 minutes. All the buffer was removed with distilled water. The cells were then stained with 1% uranyl acetate and dehydrated with a graded ethanol solution. Cells were embedded in resin. Finally, each sample was cut into thin slices of approximately 90 nm with a glass knife and stained with uranyl acetate. The images of bacterial morphological were recorded.
The cell wall was almost intact but interspersed with holes, where cell fluids outflew leading cells to death. In general, VRE was immune to compound 1 or 2 (>256 μgmL^−1), median sensitive to compound 14 (32 μgmL^−1), but highly sensitive to compound 28 (4 μgmL^−1). […]

The next assay relates to A. baumannii ATCC 19606. In words: MIC, broth microdilution. The class given is cell-based, Acinetobacter baumannii. A digest of the protocol: as §3
A further assay relates to MRSA ATCC 700787. In words: Minimal bactericidal concentration (MBC). It is filed as cell-based, Staphylococcus aureus. Here is the method: as §1, §2

Turning to `CCCCCCCC(=O)N[C@H]1[C@H](O[C@@H]2c3ccc(c(Cl)c3)Oc3cc4cc(c3O)Oc3ccc(cc3Cl)C[C@H]3NC(=O)[C@H](N)c5ccc(O)c(c5)Oc5cc(O)cc(c5)[C@H](NC3=O)C(=O)N[C@H]4C(=O)N[C@H]3C(=O)N[C@@H]2C(=O)N[C@H](C(=O)O)c2cc(O)cc(O)c2-c2cc3ccc2O)O[C@H](CO)[C@@H](O)[C@@H]1O` [Compound 14, r6,N-octyl-Glc Tei], the minimal bactericidal concentration (MBC) turned out to be 74.22 µg/mL (≈ 49.9 µM) in the assay with AB ATCC 19606 and 0.063 µg/mL (≈ 0.0424 µM) against MRSA ATCC 700787. Further, the values for the MBC/MIC against AB ATCC 19606 and against MRSA ATCC 700787 were 1 and 4, respectively. For the same molecule, the MIC is 1 µg/mL (≈ 0.673 µM) in the assay with VRE ATCC 700425 (vanC); 0.5 µg/mL (≈ 0.336 µM) in the assay on VRE ATCC 700802 (vanB); above 16 µg/mL against VRE ATCC 700221 (vanA); 0.063 µg/mL (≈ 0.0424 µM) with MRSA ATCC 43300; 0.016 µg/mL (≈ 0.0108 µM) with MRSA ATCC BAA-44; 0.016 µg/mL (≈ 0.0108 µM) with S. aureus ATCC 29213. For the same molecule, the MIC stood at 0.016 µg/mL (≈ 0.0108 µM) with MRSA ATCC 700698 hVISA; 0.016 µg/mL (≈ 0.0108 µM) against MRSA ATCC BAA-38; 0.016 µg/mL (≈ 0.0108 µM) in the assay with MRSA ATCC BAA-39; 0.016 µg/mL (≈ 0.0108 µM) with MRSA ATCC 700787 VRSA (MRSA ATCC 700787, Table 4); 0.016 µg/mL (≈ 0.0108 µM) against MRSA ATCC 700787 VRSA (MRSA ATCC 700787 VRSA); 0.5 µg/mL (≈ 0.336 µM) with MRSA ATCC 700789 VRSA. The minimal inhibitory concentration (MIC) was 50 µM in the assay with A. baumannii ATCC 19606 (A. baumannii ATCC 19606, Table 3, first figure of cell); 74.22 µg/mL in the assay on A. baumannii ATCC 19606 (A. baumannii ATCC 19606, Table 3, second figure of cell); 74.22 µg/mL in the assay on A. baumannii ATCC 19606 (AB ATCC 19606, Table 4). For the same molecule, in [1], the “sensitivity of VRE to compound (concentration)” value was determined as 32 µg/mL.
